Measurements reported in patent US4064235A, “Dopamine derivative compounds, preparation thereof and medicine containing same” (Eisai Co., Ltd., priority 1975, dated 1977).

How the values were obtained:
renal blood flow rate = assay: Measurement of the renal blood flow increasing activity in anesthetized dogs; format: in vivo; conditions: for Duration Time of Activity / Renal Blood Flow Rate Increase Ratio (%): 1 mg/Kg/min into the crotch vein continuously over 3 minutes; for Renal Blood Flow Rate Increase Ratio (%): increase at highest flow rate relative to flow rate before administration; for intensity of the activity and activity duration compared with known compound A: dogs, 1 mg/Kg/min for 3 minutes
Method: Measurement of the renal blood flow increasing activity. Compounds Tested:
Crossbred adult dogs (irrespective of the sex) having a body weight of about 15 Kg were used.
The test animal was anesthetized by an intravenous injection of pentobarbital sodium salt (30 mg/Kg) and the abdominal region was fixed. The back region was opened and a probe of a rectangular wave electromagnetic flow meter (Model MF-26 manufactured by Nippon Koden K. K.) was attached to the artery of the left kidney to determine the renal blood flow rate (R. B. F.).
Each test compound was dissolved in distilled water and administered to the test animal from a vinyl resin fine tube inserted and fixed into the crotch vein. The amount administered was 1 mg/Kg/min. and the administration was conducted continuously over a period of 3 minutes.
The degree of increase of the renal blood flow rate by administration of the test compound was expressed in terms of the increase ratio (%), namely the ratio of the increase of the flow rate (when the flow rate was highest) to the flow rate before administration of the test compound. The duration of the activity was simultaneously examined.

renal blood flow [1] = assay: tracing experiment on renal blood flow promoting activity of isoleucyl dopamine; format: in vivo
Description: Because of this specific activity, it has been considered to use dopamine for improving renal insufficiency accompanied by hyperpiesia or cardiac insufficiency and other similar diseases. However, since dopamine is promptly converted to norepinephrine or the like by metabolism and the activity is insufficient in duration, it has been difficult to put this compound into practical use.

renal blood flow [2] = conditions: cited from earlier work

| Molecule | Duration Time of Activity (renal blood flow rate; anesthetized dogs) [min] | Renal Blood Flow Rate Increase Ratio (%) (renal blood flow rate; anesthetized dogs) | intensity of the activity and activity duration compared with known compound A (renal blood flow rate) | activity retention time compared with dopamine (renal blood flow [1]) | renal blood flow promoting activity (renal blood flow [1]) | durability of renal blood flow increasing activity compared with dopamine (renal blood flow [2]; literature: Am. Chem. So., 165, Meet. MEDI. 11, 1973) | renal blood flow rate change by administration (renal blood flow rate; anesthetized dogs) | activity of increasing the renal blood flow (renal blood flow [2]; literature: Circulation Research, vol. XVI, 1965) |
| --- | --- | --- | --- | --- | --- | --- | --- | --- |
| CC(=O)O.NCC(=O)N1CCC[C@H]1C(=O)NCCc1ccc(O)c(O)c1 [Compound C of Present Invention, N-Glycyl-L-prolyl dopamine acetate] | 60 | 30 | excellent over the known compound A |  |  |  |  |  |
| CC(=O)O.CC[C@H](C)[C@H](N)C(=O)NCCc1ccc(O)c(O)c1 [Known Compound A, N-L-Isoleucyl dopamine acetate] | 6 | 10 |  | longer than that of dopamine | low | more durable than that of dopamine |  |  |
| N-Glycyl-L-glutamyl dopamine acetate [Compound B of Present Invention] | 60 | 33 | excellent over the known compound A |  |  |  |  |  |
| CC(=O)O.CCC(C)C(N)C(=O)NC(C(=O)NCCc1ccc(O)c(O)c1)C(C)C (stereo not drawn) [Compound A of Present Invention, n-l-isoleucylvalyl dopamine acetate] | 10 | 33 | excellent over the known compound A |  |  |  |  |  |
| NCCc1ccc(O)c(O)c1 [dopamine] |  |  |  |  |  |  | increased | specific activity of increasing the renal blood flow |
| CC(=O)O.NCC(=O)NCC(=O)N1CCC[C@H]1C(=O)NCCc1ccc(O)c(O)c1 [Compound E of Present Invention, N-Glycylglycyl-L-prolyl dopamine acetate] | 30 | 36 | excellent over the known compound A |  |  |  |  |  |
| CC(=O)O.CC(C)C[C@H](NC(=O)CNC(=O)CN)C(=O)NCCc1ccc(O)c(O)c1 [Compound D of Present Invention, N-Glycylglycyl-L-leucyl dopamine acetate] | 20 | 37 | excellent over the known compound A |  |  |  |  |  |
